# Data published in US20250250251A1, “PIPERIDINYLPYRIDINYLCARBONITRILE DERIVATIVES AS INHIBITORS OF GLUTAMINYL-PEPTIDE CYCLOTRANSFERASE AND GLUTAMINYL-PEPTIDE CYCLOTRANSFERASE LIKE PROTEIN” (Boehringer Ingelheim International GmbH, priority 2024, published 2025).
# Like-named read-outs stand apart in the source and are kept apart here.
# How the values were obtained:
# CACO-2 cells = assay: Assay C: permeability in CACO-2 cells; format: in vitro ADME; details: pairs with and without 4-fluoropiperidyl, CACO2 cells
# How it was run: (§1)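 Caco-2 monolayers were grown 10–25 days on porous filter inserts. Compound was applied to the apical or basolateral donor side for A-B or B-A transport (3 filters), and the receiver was sampled for up to 2 h. Quantitation was by HPLC-MS/MS or scintillation; efflux ratio = B-A/A-B permeability.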
# isolated QPCTL = isolated QPCTL (Homo sapiens, UniProt Q9NXS2); details: as disclosed in WO 2024/020517; read-out: Inhibitory activity on isolated QPCTL, IC50; cited from earlier work
# [1] = tested on: SIRPα signalling induced by A549 cells; assay: Assay B: SIRPα signalling assay using A549 cells; format: cell-based; details: Homo sapiens, read-out: Inhibition of SIRPα signalling induced by A549 cells: IC50
# How it was run: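 Raji or A549 cells (5000/well) were each incubated with serially diluted compound for 48 h at 37 °C. Jurkat PathHunter SIRPαV1 reporter cells (15000/well) were then added for 5 h. Beta-galactosidase luminescence gave IC50 via a 4-parameter sigmoidal fit.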
# murine hepatocytes = assay: Assay E: stability in murine hepatocytes; format: in vitro ADME, mouse; details: 1 μM, 5% species serum
# How it was run: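 Cryopreserved mouse hepatocytes, typically 1 Mio cells/mL in medium with 5% species serum, were dosed at 1 μM compound (0.05% DMSO) at 37 °C and sampled over 0–6 h. Parent decline was measured by HPLC-MS/MS and CLint calculated from dose/AUC, then scaled by well-stirred liver model.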
# [2] = Assay C: permeability in CACO-2 cells; format: in vitro ADME; details: human
# How it was run: as §1
# CYP3A4 mRNA = assay: Assay D: CYP induction screening assay in primary human hepatocytes; format: in vitro ADME; details: 48 h
# How it was run: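 Single-donor cryopreserved human hepatocytes on collagen with Matrigel overlay were exposed to test compound at […] (0.1% DMSO) for 48 h, medium renewed at 24 h. CYP3A4 mRNA quantified by QuantiGene Plex/Luminex, normalised to geometric mean of RPL32, EIF4E2, GUSB and expressed relative to solvent control.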
# [3] = tested on: SIRPα signalling induced by Raji cells; assay: Assay B: SIRPα signalling assay using Raji cells; format: cell-based; details: Homo sapiens, read-out: Inhibition of SIRPα signalling induced by Raji cells: IC50
# How it was run: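 SIRPα signalling induced by Raji cells in a PathHunter reporter line, read as β-galactosidase complementation luminescence. Detection reagent 1 added for 15 min, then reagent 2 for 60 min in the dark, both at room temperature.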
# QPCTL = molecular target: T1, QPCTL (Homo sapiens, UniProt Q9NXS2); assay: Assay A: biochemical QPCTL activity assay (MALDI-TOF MS, CD47 peptide substrate); details: read-out: Inhibition of QPCTL: IC50
# T1 construct: made in house
# How it was run: (§2)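 Enzyme and compound pre-incubated 10 min at 24° C in 20 mM Tris pH 7.5 with TCEP, BSA, Tween20, then 40 min with CD47 peptide (10 μM for QPCTL, 20 μM for QPCT). Pyroglutamate product/internal standard ratio by MALDI-TOF MS, normalized to controls; four-parameter logistic fit.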
# QPCT = molecular target: T2, QPCT (Homo sapiens, UniProt Q16769); assay: Assay A: biochemical QPCT activity assay (MALDI-TOF MS, CD47 peptide substrate); details: read-out: Inhibition of QPCT: IC50
# T2 construct: purchased Origine (OriGene) TP700028
# How it was run: as §2
# [4] = Caco-2, pH 7.2, read-out: Efflux Ratio
# [5] = Caco-2, pH 7.2, pairs with and without 4-fluoropiperidyl, CACO2 cells, read-out: Efflux ratio (BA/AB)
# [6] = Table 4, compounds of the invention
# [7] = Table 2, compounds of the invention
# T2 sequence (Q16769 29-361): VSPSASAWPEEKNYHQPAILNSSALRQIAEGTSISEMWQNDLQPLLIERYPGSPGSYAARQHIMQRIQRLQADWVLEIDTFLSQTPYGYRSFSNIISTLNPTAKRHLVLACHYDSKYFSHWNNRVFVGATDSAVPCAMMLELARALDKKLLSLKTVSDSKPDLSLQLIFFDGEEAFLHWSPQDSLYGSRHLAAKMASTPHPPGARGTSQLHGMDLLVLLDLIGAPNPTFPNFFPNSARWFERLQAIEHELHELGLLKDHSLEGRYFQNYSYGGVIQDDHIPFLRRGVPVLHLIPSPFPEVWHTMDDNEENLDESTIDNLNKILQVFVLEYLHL
# T1 sequence (Q9NXS2 whole entry, species assumed): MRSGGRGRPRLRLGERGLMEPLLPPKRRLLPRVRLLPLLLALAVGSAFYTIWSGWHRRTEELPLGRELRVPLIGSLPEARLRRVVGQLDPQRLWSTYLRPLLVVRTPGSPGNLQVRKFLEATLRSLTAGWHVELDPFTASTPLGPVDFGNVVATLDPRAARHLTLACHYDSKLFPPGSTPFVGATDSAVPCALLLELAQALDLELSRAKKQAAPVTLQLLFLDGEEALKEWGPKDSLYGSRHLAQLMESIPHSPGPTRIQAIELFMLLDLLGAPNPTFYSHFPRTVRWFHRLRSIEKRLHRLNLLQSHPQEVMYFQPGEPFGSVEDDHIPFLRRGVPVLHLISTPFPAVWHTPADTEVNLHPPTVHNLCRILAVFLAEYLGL
# Chain of isolated QPCTL (Q9NXS2 whole entry): as the sequence (Q9NXS2 whole entry, species assumed) above
compound,measurement,setting,value
Cn1cnnc1C1(F)CCN(c2c(-c3ccc(F)nc3)ccnc2C#N)CC1 [Example 10 in EP 22188580.9],CACO2 Perm.,CACO-2 cells,11.0 10^−6 cm/sec
Cn1cnnc1C1(F)CCN(c2c(C#N)cc(F)cc2-c2ccc(F)nc2)CC1 [Example 6 in EP 23161417.3],CACO2 Perm.,CACO-2 cells,44.0 10^−6 cm/sec
Cn1cnnc1C1CCN(c2c(C#N)cc(Cl)cc2-c2cnc3nn(C(C)(C)C)cc3c2)CC1 [Example 17 in EP 23161417.3],CACO2 Perm.,CACO-2 cells,2.5 10^−6 cm/sec
Cn1cnnc1C1CCN(c2c(C#N)cccc2-c2cnc3nn(C(C)(C)C)cc3c2)CC1 [Example 50 in EP 22216126.7],CACO2 Perm.,CACO-2 cells,0.5 10^−6 cm/sec
Cn1cnnc1C1CCN(c2c(C#N)cc(C(F)(F)F)nc2-c2cnc3nn(C(C)(C)C)c(Cl)c3c2)CC1,CACO2 Perm.,CACO-2 cells,1.0 10^−6 cm/sec
"Cn1cnnc1C1CCN(c2c(C#N)cccc2-c2cnc3nccn3c2)CC1 [Compound 93, reference compound]",IC50,isolated QPCTL,< 100 nM
same,IC50,"[1]; Table 5, prior art compounds",356 nM
same,Mouse Hepatocyte Stability QH,"murine hepatocytes; Table 13, prior art compounds",26%
same,Papp A→B,"[2]; Caco-2, pH 7.2",< 0.04 ×10⁻⁶ cm/s
same,efflux ratio,[2]; [4],> 40
same,n-fold induction of CYP3A4 at 10 μM,"CYP3A4 mRNA; Table 10, prior art compounds",0.8 n-fold
same,IC50,"[3]; Table 5, prior art compounds",1380 nM
same,IC50,"QPCTL; Table 3, prior art compounds",1 nM
same,IC50,"QPCT; Table 3, prior art compounds",5 nM
"COc1ccc(-c2cnc3nccn3c2)c(N2CCC(c3nncn3C)CC2)c1C#N [Compound 94, reference compound]",IC50,isolated QPCTL,< 100 nM
same,IC50,"[1]; Table 5, prior art compounds",1300 nM
same,Mouse Hepatocyte Stability QH,"murine hepatocytes; Table 13, prior art compounds",30%
same,Papp A→B,"[2]; Caco-2, pH 7.2",< 1.4 ×10⁻⁶ cm/s
same,efflux ratio,[2]; [4],> 0.8
same,n-fold induction of CYP3A4 at 10 μM,"CYP3A4 mRNA; Table 10, prior art compounds",<1 n-fold
same,IC50,"[3]; Table 5, prior art compounds",2040 nM
same,IC50,"QPCTL; Table 3, prior art compounds",1 nM
same,IC50,"QPCT; Table 3, prior art compounds",3 nM
Cn1cnnc1C1CCN(c2c(C#N)cc(C(F)(F)F)cc2-c2ccc(F)nc2)CC1 [Compound 70 in WO 2024/020517],CACO2 Perm.,CACO-2 cells,9.0 10^−6 cm/sec
"Cn1cnnc1C1CCN(c2c(C#N)cccc2-c2cnc3[nH]nc(O)c3c2)CC1 [Compound 113, reference compound]",IC50,isolated QPCTL,< 100 nM
same,IC50,"[1]; Table 5, prior art compounds",4240 nM
same,Mouse Hepatocyte Stability QH,"murine hepatocytes; Table 13, prior art compounds",<12%
same,Papp A→B,"[2]; Caco-2, pH 7.2",< 0.78 ×10⁻⁶ cm/s
same,efflux ratio,[2]; [4],> 5
same,n-fold induction of CYP3A4 at 10 μM,"CYP3A4 mRNA; Table 10, prior art compounds",<1 n-fold
same,IC50,"[3]; Table 5, prior art compounds",> 10000 nM
same,IC50,"QPCTL; Table 3, prior art compounds",149 nM
same,IC50,"QPCT; Table 3, prior art compounds",164 nM
"COc1ccc(-c2ccnnc2)c(N2CCC(c3nncn3C)CC2)c1C#N [Compound 26, reference compound]",IC50,isolated QPCTL,< 100 nM
same,IC50,"[1]; Table 5, prior art compounds",208 nM
same,Mouse Hepatocyte Stability QH,"murine hepatocytes; Table 13, prior art compounds",19%
same,Papp A→B,"[2]; Caco-2, pH 7.2",< 0.02 ×10⁻⁶ cm/s
same,efflux ratio,[2]; [4],> 135
same,n-fold induction of CYP3A4 at 10 μM,"CYP3A4 mRNA; Table 10, prior art compounds",1.1 n-fold
same,IC50,"[3]; Table 5, prior art compounds",452 nM
same,IC50,"QPCTL; Table 3, prior art compounds",1 nM
same,IC50,"QPCT; Table 3, prior art compounds",2 nM
Cn1cnnc1C1CCN(c2c(C#N)cc(F)cc2-c2cnc3nn(C(C)(C)C)c(C(F)(F)F)c3c2)CC1,efflux ratio,[2]; [5],5.7
same,CACO2 Perm.,CACO-2 cells,17.0 10^−6 cm/sec
Cn1cnnc1C1(F)CCN(c2c(C#N)cccc2-c2ccnnc2)CC1 [Example 52 in EP 22216126.7],CACO2 Perm.,CACO-2 cells,15.0 10^−6 cm/sec
Cn1cnnc1C1(F)CCN(c2c(C#N)ccnc2-c2ccc(F)nc2)CC1 [Example 1 in EP 22188580.9],CACO2 Perm.,CACO-2 cells,28.0 10^−6 cm/sec
Cn1cnnc1C1(F)CCN(c2c(C#N)cc(C(F)(F)F)nc2-c2cnc3nn(C(C)(C)C)c(C(F)(F)F)c3c2)CC1 [Example 4 in EP 23189886.7],CACO2 Perm.,CACO-2 cells,99.5 10^−6 cm/sec
Cn1cnnc1C1CCN(c2c(C#N)cc(C(F)(F)F)nc2-c2cnc3nn(C(C)(C)C)c(C(F)(F)F)c3c2)CC1 [Example 13 in EP 23189886.7],CACO2 Perm.,CACO-2 cells,3.7 10^−6 cm/sec
Cn1cnnc1C1(F)CCN(c2c(C#N)cccc2-c2cnc3nn(C(C)(C)C)cc3c2)CC1 [Example 62 in EP 22216126.7],CACO2 Perm.,CACO-2 cells,4.9 10^−6 cm/sec
Cn1cnnc1C1(F)CCN(c2c(C#N)cc(Cl)cc2-c2cnc3nn(C(C)(C)C)cc3c2)CC1 [Example 19 in EP 23161417.3],CACO2 Perm.,CACO-2 cells,18.0 10^−6 cm/sec
Cn1cnnc1C1(F)CCN(c2c(C#N)cccc2-c2ccc(F)nc2)CC1 [Example 56 in EP 23161417.3],CACO2 Perm.,CACO-2 cells,50.0 10^−6 cm/sec
Cn1cnnc1C1(F)CCN(c2c(-c3cnc4nn(C(C)(C)C)cc4c3)ccc(C(F)(F)F)c2C#N)CC1 [Example 30 in EP 23161417.3],CACO2 Perm.,CACO-2 cells,1.7 10^−6 cm/sec
Cn1cnnc1C1(F)CCN(c2c(C#N)cc(C(F)(F)F)nc2-c2cnc3nn(C(C)(C)C)c(Cl)c3c2)CC1 [Example 3 in EP 23189886.7],CACO2 Perm.,CACO-2 cells,47.0 10^−6 cm/sec
Cn1cnnc1C1CCN(c2c(-c3cnc4nn(C(C)(C)C)cc4c3)ccc(C(F)(F)F)c2C#N)CC1 [Example 32 in EP 23161417.3],CACO2 Perm.,CACO-2 cells,0.2 10^−6 cm/sec
Cn1cnnc1C1CCN(c2c(-c3ccc(F)nc3)ccnc2C#N)CC1 [Compound 132 in WO 2024/020517],CACO2 Perm.,CACO-2 cells,1.8 10^−6 cm/sec
Cn1cnnc1C1(F)CCN(c2c(C#N)cc(F)cc2-c2cnc3nn(C(C)(C)C)c(C(F)(F)F)c3c2)CC1,efflux ratio,[2]; [5],0.8
same,CACO2 Perm.,CACO-2 cells,51.0 10^−6 cm/sec
Cn1cnnc1C1(F)CCN(c2c(C#N)cc(Cl)cc2-c2ccc(F)nc2)CC1 [Example 18 in EP 23161417.3],CACO2 Perm.,CACO-2 cells,66.0 10^−6 cm/sec
Cn1cnnc1C1CCN(c2c(C#N)cc(F)cc2-c2ccc(F)nc2)CC1 [Compound 130 in WO 2024/020517],CACO2 Perm.,CACO-2 cells,24.0 10^−6 cm/sec
Cn1cnnc1C1CCN(c2c(C#N)cc(Cl)cc2-c2ccc(F)nc2)CC1 [Compound 18 in WO 2024/020517],CACO2 Perm.,CACO-2 cells,23.0 10^−6 cm/sec
Cn1cnnc1C1CCN(c2c(C#N)ccnc2-c2ccc(F)nc2)CC1 [Compound 133 in WO 2024/020517],CACO2 Perm.,CACO-2 cells,4.8 10^−6 cm/sec
Cn1cnnc1C1(F)CCN(c2c(C#N)cc(C(F)(F)F)cc2-c2ccc(F)nc2)CC1 [Example 4 in EP 23161417.3],CACO2 Perm.,CACO-2 cells,40.5 10^−6 cm/sec
Cc1ccc(-c2cc(C#N)c(N3CCC(F)(c4nncn4C)CC3)c(-c3cnc4nn(C(F)(F)F)cc4c3)n2)cn1 [Example 22],IC50,[1]; [6],17 nM
same,Mouse Hepatocyte Stability QH,"murine hepatocytes; Table 12, compounds of the invention",17%
same,Papp A→B,"[2]; pH 7.2, Table 7, compounds of the invention, CACO-2 cells",12 ×10⁻⁶ cm/s
same,efflux ratio,"[2]; pH 7.2, Table 7, compounds of the invention, CACO-2 cells, permeability B-A/permeability A-B, read-out: Efflux Ratio",6.8
same,n-fold induction of CYP3A4 at 10 μM,"CYP3A4 mRNA; Table 9, compounds of the invention",0.5 n-fold
same,IC50,[3]; [6],130 nM
same,IC50,QPCTL; [7],1 nM
same,IC50,QPCT; [7],3 nM
"Cn1cnnc1C1CCN(c2c(C#N)cccc2-c2ccc(F)nc2)CC1 [(1)/QP5020, reference compound]",IC50,"[1]; Table 5, prior art compounds",8 nM
same,Mouse Hepatocyte Stability QH,"murine hepatocytes; Table 13, prior art compounds",83%
same,CACO2 Perm.,CACO-2 cells,28.0 10^−6 cm/sec
